Source: US10676527B2, “Methods and compositions for modulation of blood-neural barrier” (Ludwig Institute for Cancer Research Ltd, priority 2006, dated 2020)
Where a name gives a salt, the structure may show the parent alone.

Tests used:
PDGFR-α = PDGFR-α (Homo sapiens, UniProt P16234); conditions: known from the art; cited from earlier work
BBB = test: Evans Blue extravasation (BBB opening) after intraventricular injection; format: in vivo; conditions: Example 1, FIG. 1; C57BL6 mice, 2 μl intraventricular, 3 μM, 1 hour after injection
Procedure: (§1) Wild type C57BL6 mice (10 Week old) were injected intraventricularly into the dorsal third ventricle with 2 μl of PBS, active PDGF-AA, PDGF-BB (both from Preprotech Inc.) and PDGF-CC (see below) (3 μM). Evans Blue was given intravenously immediately after the injection. One hour after the injection, the animals were perfused with PBS and the brain tissue was removed and processed for Evans Blue extravasation.
as §1, with “of either” for “of”, “PBS, wild type murine tPA (3 μM),” for “PBS,”, “active” for “active PDGF-AA, PDGF-BB (both from Preprotech Inc.) and”, “(3 μM), or wild type murine tPA (3 μM) plus active PDGF-CC” for “(see below)”
Wt C57BL6 mice (10 Week old) were injected intraventricularly with 3 μl of either PBS, wild type murine tPA (3 μM), wild type murine tPA (3 μM) with rabbit anti-PDGF-CC (150 μg/ml). Evans Blue was given intravenously immediately after the injection. One hour after the injection, the animals were perfused with PBS and the brain tissue was removed and processed for Evans Blue extravasation.

PDGFR-α, sequence (P16234 24-1089, species assumed): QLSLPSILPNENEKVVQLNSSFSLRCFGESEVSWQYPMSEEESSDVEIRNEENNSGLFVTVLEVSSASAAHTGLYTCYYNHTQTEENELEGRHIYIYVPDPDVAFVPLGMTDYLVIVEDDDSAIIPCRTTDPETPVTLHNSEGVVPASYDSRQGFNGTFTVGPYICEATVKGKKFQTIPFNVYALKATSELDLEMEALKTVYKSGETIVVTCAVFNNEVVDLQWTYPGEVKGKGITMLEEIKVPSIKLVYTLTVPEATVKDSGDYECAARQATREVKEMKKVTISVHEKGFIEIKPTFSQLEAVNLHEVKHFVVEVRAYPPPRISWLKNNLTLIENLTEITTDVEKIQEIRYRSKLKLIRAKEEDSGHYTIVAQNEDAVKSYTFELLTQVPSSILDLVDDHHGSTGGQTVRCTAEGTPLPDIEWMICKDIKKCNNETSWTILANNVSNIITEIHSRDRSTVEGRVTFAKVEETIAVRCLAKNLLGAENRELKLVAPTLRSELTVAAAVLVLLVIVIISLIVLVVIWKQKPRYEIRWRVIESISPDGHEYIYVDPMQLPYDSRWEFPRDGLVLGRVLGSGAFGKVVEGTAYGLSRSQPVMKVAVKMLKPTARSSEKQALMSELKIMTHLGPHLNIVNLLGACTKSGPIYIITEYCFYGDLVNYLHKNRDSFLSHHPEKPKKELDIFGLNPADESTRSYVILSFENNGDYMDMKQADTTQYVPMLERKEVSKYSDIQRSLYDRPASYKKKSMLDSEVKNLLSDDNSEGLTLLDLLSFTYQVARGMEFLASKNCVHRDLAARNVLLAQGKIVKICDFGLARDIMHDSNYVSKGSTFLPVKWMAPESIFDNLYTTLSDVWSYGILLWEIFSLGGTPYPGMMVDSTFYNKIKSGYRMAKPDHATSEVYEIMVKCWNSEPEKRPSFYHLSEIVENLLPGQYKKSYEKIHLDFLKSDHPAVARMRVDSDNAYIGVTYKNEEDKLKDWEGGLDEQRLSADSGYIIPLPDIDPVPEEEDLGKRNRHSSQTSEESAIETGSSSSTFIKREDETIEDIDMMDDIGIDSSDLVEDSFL

Row | Molecule | inhibition of PDGFR-α (PDGFR-α) | vascular permeability / opening of the BBB (Evans Blue extravasation) (BBB)
1 | Cc1ccc(NC(=O)c2ccc(CN3CCN(C)CC3)cc2)cc1Nc1nccc(-c2cccnc2)n1 [Gleevec®, imatinib mesylate] | at least partially inhibit | –
2 | PDGF-AA: active platelet-derived growth factor AA dimer (from Preprotech Inc.) | – | induce increased vascular permeability
